# Where two headings read alike, the source gives them in different places.
# How the values were obtained:
# [1] = system: endothelial cells occurring in MATRIGEL plugs; assay: In vivo […] plug angiogenesis model; design: species or system athymic (nu/nu) Balb/c mice; conditions: mouse
# Protocol: LX1 human lung tumor fragments that were maintained by serial subcutaneous passage in athymic (nu/nu) Balb/c mice were implanted subcutaneously as small fragments approximately 0.1 mm^3 in size. Tumor volume doubling time for this tumor in these studies was 2.8 days. When tumors reached the size range of 150-200 mm^3, liquid […] was injected subcutaneously on the side contralateral to the tumor. Treatment was initiated 24 hours later at varying doses and schedules. Prior to implanting, […] is prepared by placing solidified […] on ice overnight at 4 C in accordance with the method described by Passiniti et al. (Lab. Invest. 1992 67:519-28). At the liquid phase and while on ice, VEGF and bFGF (Peprotech, Inc. Rocky Hill, NJ) is added to the […] at final respective concentrations of 75 ng/ml and 300 ng/ml. Stock solutions of these growth factors are made fresh at 10 mg/ml in PBS. […] These plugs were then processed for paraffin embedding and sectioned at 5 µm thickness followed by staining with hematoxylin and eosin prior to quantitative analysis. The number of endothelial cells in plugs was quantitated using the IMAGEPRO PLUS software (Media Cybernetics, Inc., Silver Spring, MD) at a magnification of 20x. […]
# Angiogenesis is evaluated in these plugs as the number of endothelial cells migrating into plugs from compound treated groups relative to the vehicle treated group. […]
# [2] = system: human breast carcinoma line H3396; assay: H3396 tumor cell proliferation (3H-thymidine incorporation); type: cell-based
# Protocol: Primary human umbilical vein endothelial cells (HUVEC) were purchased from CLONETICS Inc. (San Diego, CA) and used at passage 2 to 3. Proliferation was measured using ^3H-thymidine incorporation in cells by pulsing twenty-four hours prior to harvesting cell cultures. The human breast carcinoma line H3396 was used to assess activity of compound on tumor cells. Cells (2 × 10^3) were plated on collagen IV coated 96 well plates. Twenty-four hours later, compounds were added at varying concentrations. After 48 hours, ^3H-thymidine was added and cells were allowed to incorporate this label over a twenty-four hour period. Cellular extracts were harvested onto glass filters and incorporated radioactivity was determined by counting in a Beta scintillation counter. The IC50, defined as the drug concentration that causes 50% inhibition of ^3H-thymidine incorporation, was extrapolated from the plotted data. Cell selective inhibition for endothelial cells by a particular compound was defined by at least a ten-fold greater inhibition of HUVEC primary cell cultures when compared to the H3396 tumor cell line.
# [3] = system: human umbilical vein endothelial cell (HUVEC); assay: HUVEC proliferation (3H-thymidine incorporation); type: cell-based; conditions: second value of two separate experiments, read-out: IC50 in Cells HUVEC
# Protocol: Primary human umbilical vein endothelial cells (HUVEC) were purchased from CLONETICS Inc. (San Diego, CA) and used at passage 2 to 3. Proliferation was measured using ^3H-thymidine incorporation in cells by pulsing twenty-four hours prior to harvesting cell cultures. […] Cells (2 × 10^3) were plated on collagen IV coated 96 well plates. Twenty-four hours later, compounds were added at varying concentrations. After 48 hours, ^3H-thymidine was added and cells were allowed to incorporate this label over a twenty-four hour period. Cellular extracts were harvested onto glass filters and incorporated radioactivity was determined by counting in a Beta scintillation counter. The IC50, defined as the drug concentration that causes 50% inhibition of ^3H-thymidine incorporation, was extrapolated from the plotted data.
# [4] = system: mammary 16/C murine carcinoma; assay: Staged subcutaneous mammary 16/C carcinoma in mice, gross log cell kill; type: in vivo, C3H mice
# From the text: The final concentrations of each component of the vehicle was as follows: CREMOPHOR 10%; ethanol […]; aqueous 80%.
# C3H conventional mice were purchased from Harlan-Sprague Dawley (Indianapolis, IN) and fed mouse chow and water ad libitum.
# The metastatic mammary 16/C murine carcinoma was propagated biweekly in C3H mice. Experiments were initiated by subcutaneous insertion by trocar of tumor fragments.
# For in vivo tumor testing, the C3H mice were implanted subcutaneously with mammary 16/C tumor fragments. All treatments were initiated on Day 10 post-tumor implant, except for an untreated control group. All groups contained 8 mice. Tumors were measured once or twice weekly and dimensions were converted to weights using the formula Weight (milligrams)= […], where a=length and b=width (in millimeters). The median time for tumors within each group of mice to reach 1 gram was determined and the delays in median time to reach 1 gram tumor target size for treated (T) versus control (C) groups was calculated. These delays in tumor growth (T-C value in days) were further converted to gross log cell kill (LCK) values using the formula T-C/(tumor volume doubling time, TVDT, of the control group) x (3.32). A LCK of greater than or equal to 1 LCK was considered an active result. Cures were assessed at the end of each experiment and defined in the absence of a tumor mass of greater than 35 milligrams. Experiments were terminated more than 10 x TVDT following the completion of all treatments.
# [5] = system: drug-resistant Lewis Lung carcinoma; conditions: 170 mg/kg every 6 days versus other cyclophosphamide schedules tested (e.g. 135 mg/kg every 4 days); cited from earlier work
# [6] = metronomic regime 20 mg/kg orally, q2dx15, cumulative dose 300 mg/kg
# From the text for L2987 human lung tumors: L2987 human lung tumors were implanted and allowed to reach 50 to 100 mm^3 before drug administration.
smiles,measurement,setting,value
"COC(=O)O[C@@]12CO[C@@H]1C[C@H](O)[C@@]1(C)C(=O)[C@H](OC(C)=O)C3=C(C)[C@@H](OC(=O)[C@H](O)[C@@H](NC(=O)OC(C)(C)C)C(C)(C)C)C[C@@](O)([C@@H](OC(=O)c4ccccc4)[C@H]21)C3(C)C [Formula I, 3'-tert-Butyl-3'-N-tert-butyloxycarbonyl-4-deacetyl-3'-dephenyl-3'-N-debenzoyl-4-O-methoxycarbonyl-paclitaxel]",doses lower than the maximum tolerated dose at which anti-angiogenic effects are still observed in vivo,[1],approximately 13 fold
same,IC50,"[2]; H3396, read-out: IC50 in Cells H3396, second value of two separate experiments",3 nM
same,weight loss,"L2987 human lung tumors; 60 mg/kg orally, standard schedule q2dx5 (MTD), cumulative dose 300 mg/kg",weight loss was also observed
same,anti-tumor response,"L2987 human lung tumors; 60 mg/kg orally, standard schedule q2dx5 (MTD), cumulative dose 300 mg/kg, compared with metronomic regime",greater anti-tumor response was observed
same,tumor growth,L2987 human lung tumors; [6],suppressed tumor growth
same,weight loss,L2987 human lung tumors; [6],no weight loss was observed
"CC(=O)O[C@H]1C(=O)[C@@]2(C)[C@H]([C@H](OC(=O)c3ccccc3)[C@]3(O)C[C@H](OC(=O)[C@H](O)[C@@H](NC(=O)c4ccccc4)c4ccccc4)C(C)=C1C3(C)C)[C@]1(OC(C)=O)CO[C@@H]1C[C@@H]2O [TAXOL, paclitaxel]",IC50,"[2]; H3396, second value of two separate experiments, read-out: IC50 in Cells H3396",4 nM
same,IC50,[3],5 nM
same,cures/total,"[4]; Paclitaxel 20 mg/kg/inj qd 10-14 iv, Paclitaxel 30 qd 32-36 iv, no Formula I, Day 88 post-tumor implant",1/8
same,cures/total,"[4]; Paclitaxel 30 mg/kg/inj qd 10-14 iv only, Day 60 post tumor implant",2/8
same,cures/total,"[4]; Paclitaxel 30 mg/kg/inj qd 10-14 iv, Paclitaxel 30 qd 32-36 iv, no Formula I, Day 88 post-tumor implant, listed as Paclitaxel",2/8
same,cures/total,"[4]; Paclitaxel 30 mg/kg/inj qd 10-14 iv, Paclitaxel 30 qd 32-36 iv, no Formula I, Day 88 post-tumor implant, listed as paclitaxel",2 of 8
same,cures/total,"[4]; Paclitaxel 45 mg/kg/inj qd 10-14 iv only, Day 60 post tumor implant",1/8
same,likely MTD regimen,"[4]; during each of the two courses of treatment (qdx5; 10, 32, iv)",30 mg/kg/inj
same,MTD regimen,"[4]; qdx5, iv, beginning on Day 10 post-tumor implant, single course",45 mg/kg/injection
O=P1(N(CCCl)CCCl)NCCCO1 (stereo not shown) [cyclophosphamide],controlling tumor growth,[5],more effective

# Source: patent publication EP1623706A2 (priority 2001, dated 2002)
